The text below walks through data of paper PMC3532212 (PLoS ONE, 2012).

The test system of data set [1] is conscious, telemetry-instrumented rats. Nature of the data set: Telemetry-instrumented conscious rats, single oral dose hemodynamics. The settings on record: conscious rat; for mean arterial pressure above baseline, 24-hr mean: vehicle 3.6±1.5. It counts as in vivo. The protocol: (§1) Mean arterial pressure was assessed in conscious, freely moving male Sprague Dawley rats (n = 6–8/group; Charles River) instrumented with telemetry transmitters (DSI-Ponemah) and housed in metabolism cages as previously described, [26]. Tested compounds were solubilized in a 0.5% Methylcellulose/0.015% Tween 80 vehicle that was also dosed alone (p.o./QD, 5 mL/kg) as a control in the study. FTY720 was administered p.o. at 0.3, 1.0, 3.0, 10.0 mg/kg p.o. as a single dose or p.o./QD at 0.5, 1.5, and 5.0 mg/kg in a chronic study. BAF312 was administered p.o/QD at 0.3, 3.0, and 30 mg/kg as a single dose and in a chronic study. Mean arterial pressure and heart rate are shown as 1-hr and/or 24-hr mean values±SEM as described in the results. Blood samples in satellite rats were withdrawn at various timepoints as described in the results for analysis of plasma concentrations of the parent compound and, in the case of FTY720, also the phosphorylated metabolite, (S)-FTY720-P. Statistical analysis for the single-dose acute studies was based on one-way ANOVA to compare the treatment groups vs. vehicle for each time period after dosing (0–24 hrs, 24–48 hrs, and 48–72 hrs); statistical significance (p<0.05) was detected by Dunnett’s post-hoc test to compare treatment with vehicle controls. The statistical analysis in the chronic studies were based on one-way ANOVA with repeated measures to compare the treatment arms; statistical significance (p<0.05) was detected by Dunnett’s post-hoc test to compare treatment with vehicle controls.

A further data set concerns anesthetized rats. Nature of the data set: Anesthetized rat cardiovascular study (mean arterial pressure, heart rate). It is filed as in vivo. The settings on record: for effect on heart rate of acute i.v. infusion: anesthetized rats, FTY720 0.1, 0.3, 1.0 mg/kg/20 min or BAF312 0.5, 1.5, 5.0 mg/kg/20 min; for heart rate, change below baseline / mean arterial pressure, change below baseline: FTY720 i.v. As for the experimental part:
The cardiovascular effects of FTY720 and BAF312 were tested in anesthetized rats (180–200 g). In brief, male Sprague Dawley rats (Charles River) were anesthetized with Inactin (110 mg/kg i.p.) and a tracheotomy performed. The femoral artery and veins were catheterized for measurement of mean arterial pressure and heart rate, collection of blood samples at 20-min intervals (0.2 mL/sample), and for compound infusion/hydration as previously described, [24]; blood samples were also withdrawn in vehicle-treated control rats. FTY720, infused as a hydrochloride salt (0.1, 0.3, 1.0 mg/kg/20-min free base equivalent solubilized in a 100% PEG-400 vehicle), or BAF312 (0.5, 1.5, 5.0 mg/kg/20-min solubilized in a 100% PEG-400 vehicle) were administered via three escalating 20-min infusions (0.011 mL/min) followed by a 1-hr post-treatment period. A blood sample was withdrawn at 20, 40, 60, and 120-minutes for analysis of plasma concentrations of the parent compound, and in the case of FTY720, also the phosphorylated metabolite, (S)-FTY720-P. Statistical significance (p<0.05) was based on a t-test comparing treatment change from baseline (baseline was defined as the period from −30 to 0 minutes) vs. vehicle controls change from baseline at each timepoint without adjustment for multiple comparisons. In a separate group of anesthetized rats in which left ventricular (LV) contractility was also recorded with a Millar pressure transducer introduced into the left ventricle, BAF312 was infused in the same dosing regimen as the studies described above (0.5, 1.5, 5.0 mg/kg/20-min solubilized in a 100% PEG-400 vehicle) and effects on LV dP/dtmax were recorded.

Data set [2] relates to mouse and rat experimental autoimmune encephalitis, EAE. The arrangement: method as in PMID 23436932. The settings on record: correlated with reduced circulating lymphocytes and monocytes; cited from earlier work.
Data set [3] relates to conscious, telemetry-instrumented rats. Nature of the data set: Telemetry-instrumented conscious rats, repeat-dosing hemodynamics. It counts as in vivo. The following applies: conscious rat; for mean arterial pressure, average change in 24-mean values: 14-days of treatment; for mean arterial pressure increase relative to baseline, 24-hr mean over the treatment period: vehicle 3.7±0.5. As for the experimental part: as §1, with “BAF312 was administered p.o/QD at 0.3, 3.0, and 30 mg/kg as a single dose and in a chronic study.” left out

Data set [4] can be described thus: CSF concentrations after a single oral dose of FTY720, satellite rats. It is filed as in vivo, rat. The following applies: FTY720 3.0 or 10 mg/kg single oral dose, 4, 8, 24, 72-hrs post-dose. The protocol:
Prior to longer-term hypertension studies with FTY720 an acute, single oral-dose study was performed to define the lower and upper limits of a pharmacologically-active dose with respect to acute hemodynamic effects. […] Values of both the parent and metabolite were detectable through at least 72-hrs post-dose. Tissue concentrations in the brain, skeletal muscle, and CSF were also determined in a separate group of satellite rats (please see Supplementary Figure, S2 ). Relative to the vehicle control group, FTY720 elicited dose-dependent and sustained increases in mean arterial pressure after a single oral dose, an effect that reached statistical significance in the 3 and 10 mg/kg dose groups (to 13.5±1.8 and 19.9±2.8 mmHg above baseline, respectively, based on a 24-hr mean values on day 1 vs. 3.6±1.5 mmHg in vehicle controls, Figure 4 , A). […] The acute hemodynamic effects of a single oral dose of BAF312 (0.3, 3.0, and 30 mg/kg) were also quantified.
A blood sample or tissues were harvested from satellite rats at 4, 8, 24, and 72-hrs post-dose. […] (TIF) Click here for additional data file.

Setting [5] is: BAF312 0.3, 3.0, 30 mg/kg single oral dose.
[6] abbreviates: anesthetized rat, end of 0.1 mg/kg/20 min infusion.
[7] abbreviates: anesthetized rat, end of 0.3 mg/kg/20 min infusion.
The mark [8] stands for this setting: anesthetized rat, end of 1.0 mg/kg/20 min infusion.

Where “and” joins values, the source holds several entries; their conditions need not be identical. Equal entries are not always repeated. Entries after “also recorded” stand apart in the source; their conditions may differ.

Take `CCc1cc(/C(C)=N/OCc2ccc(C3CCCCC3)c(C(F)(F)F)c2)ccc1CN1CC(C(=O)O)C1` [BAF312]: in data set [1] (setting [5]), the “effect on heart rate” value is recorded as “no statistically significant effect”. Further, the “effect on mean arterial pressure” value in data set [1] (setting [5]) is “no statistically significant effect”; in the data set on anesthetized rats (anesthetized rat, BAF312 0.5, 1.5, 5.0 mg/kg/20-min i.v.), “no effect”. The “time heart rate remained statistically reduced” value in the data set with anesthetized rats (anesthetized rat, BAF312 i.v. infusion) was 30 min. In addition, the “heart rate, change from baseline” value in the data set on anesthetized rats (anesthetized rat, BAF312 i.v., 10-min into the first infusion period (0.5 mg/kg/20 min), vehicle −6±4) is reported as −51±8 beats/min. Moreover, in the data set on anesthetized rats (anesthetized rat, BAF312 i.v., latter half of the 60-min infusion), the “heart rate vs vehicle” value is “not different from vehicle controls”. Moreover, in the data set with anesthetized rats, the “effect on heart rate of acute i.v. infusion” value is listed as “acute bradycardia”. Moreover, in data set [2], the “efficacious dose in EAE” value is 0.3 mg/kg. The “mean arterial pressure, average change in 24-mean values” is recorded as 3.0±0.5 mmHg in data set [3] (BAF312 0.3 mg/kg/d p.o./QD), 1.1±0.5 mmHg in data set [3] (BAF312 3.0 mg/kg/d p.o./QD) and 0.1±0.5 mmHg in data set [3] (BAF312 30 mg/kg/d p.o./QD). Also, the “24-hr mean change in heart rate” value in data set [3] (BAF312 3 mg/kg dose group (so in the source), 14-day study) was −2±2 beats/min; in data set [3] (BAF312 10 mg/kg dose group (so in the source), 14-day study), −2±3 beats/min; in data set [3] (BAF312 30 mg/kg dose group, 14-day study) it was −2±4 beats/min. Also, the “effect on blood pressure / mean arterial pressure during repeat dosing” value in data set [3] (BAF312 0.3, 3.0, 30.0 mg/kg/d p.o.) is “no significant effect; also recorded: no significant increase”. Further, the “bradycardia during repeat dosing” value in data set [3] (BAF312 any dose group, 14-day study) was “no bradycardia was observed”.

As to `CCCCCCCCc1ccc(CC[C@](N)(CO)COP(=O)(O)O)cc1` [FTY720-P], the “concentration in the CSF” value in data set [4] is “No compound was detectable”.

`CCCCCCCCc1ccc(CCC(N)(CO)CO)cc1` [FTY720]: the “mean arterial pressure above baseline, 24-hr mean” value was found to be 13.5±1.8 mmHg in data set [1] (FTY720 3 mg/kg single oral dose, day 1) and 19.9±2.8 mmHg in data set [1] (FTY720 10 mg/kg single oral dose, day 1). Moreover, the “heart rate change from baseline, 24-hr mean” value in data set [1] (FTY720 10 mg/kg single oral dose, day 1, vehicle 15±3) is recorded as −13±6 beats/min. For the same molecule, in data set [1] (FTY720 single oral dose, after day 1 up to 72 hours), the “changes in heart rate vs vehicle after day 1” value is given as “not different from vehicle control rats”. For the same molecule, the “heart rate, change below baseline” value is reported as −71±26 beats/min with anesthetized rats (setting [6]), −139±37 beats/min in the data set on anesthetized rats (setting [7]) and −173±26 beats/min with anesthetized rats (setting [8]). For the same molecule, the figures for the “mean arterial pressure, change below baseline” value in the data set with anesthetized rats (setting [6]), in the data set on anesthetized rats (setting [7]) and with anesthetized rats (setting [8]) were −9±3 mmHg, −22±4 mmHg and −24±4 mmHg, respectively. Further, the “effect on heart rate of acute i.v. infusion” value in the data set with anesthetized rats is listed as “acute bradycardia”. Moreover, in data set [2], the “efficacious dose in EAE” value is reported as 0.3 mg/kg. The “24-hr mean change in heart rate” value in data set [3] (FTY720 0.5 mg/kg p.o./QD repeat dosing, vehicle −2±1) is reported as 11±2 beats/min; in data set [3] (FTY720 1.5 mg/kg p.o./QD repeat dosing, vehicle −2±1), 1±1 beats/min; in data set [3] (FTY720 5.0 mg/kg p.o./QD repeat dosing, vehicle −2±1), 1±3 beats/min. In addition, the “mean arterial pressure increase relative to baseline, 24-hr mean over the treatment period” value is 8.4 mmHg and 8.4±0.4 mmHg in data set [3] (FTY720 0.5 mg/kg/d p.o./QD, 0.5 mg/kg/day); 12.8 mmHg and 12.8±0.4 mmHg in data set [3] (FTY720 1.5 mg/kg/d p.o./QD, 1.5 mg/kg/day); 16.2 mmHg and 16.2±0.8 mmHg in data set [3] (FTY720 5.0 mg/kg/d p.o./QD, 5 mg/kg/day). Besides, in data set [3] (FTY720 0.5, 1.5, 5.0 mg/kg/d p.o.), the “bradycardia during repeat dosing” value was “no acute or sustained bradycardia”. Besides, the “concentration in the CSF” value in data set [4] is “No compound was detectable”.
